Assay results published in patent US12006330B2, “Substituted macrocyclic compounds and related methods of treatment” (Alkermes, Inc., priority 2020, dated 2024).

Tests used:
[1] = test system: MDR1; assay: MDCK-MDR1 permeability assay; format: in vitro ADME; conditions: dog, MDCK-MDR1, MDCK-MDR1 cells; for efflux ratio at 2 h, 3 μM: Papp B→A divided by Papp A→B, read-out: Efflux ratio (ER); for Papp A→B at 2 h, 3 μM: test compound 3 μM, 2 hours at 37 degrees C, apical to basolateral
Method in brief: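 Test compound at 3 μM in HBSS was dosed apical-to-basolateral (with 100 μM Lucifer Yellow) and basolateral-to-apical across MDCK-MDR1 monolayers at 37 °C for 2 h. Receiver and donor samples were quantified by LC-MS/MS. Papp = dQ/dt×1/A×C0, efflux ratio = Papp(B→A)/Papp(A→B), and percent recovery was also derived.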

[2] = target: T1, human orexin-2 receptor (OX2R) (Homo sapiens, UniProt O43614); assay: Human OX2R IP1 assay; format: cell-based; conditions: T-Rex CHO cells stably overexpressing human OX2R; IP1 accumulation; 1 hr at 37 degrees C; mean EC50
T1 construct: expressed in transfected cells
T1 sequence (O43614 1-444): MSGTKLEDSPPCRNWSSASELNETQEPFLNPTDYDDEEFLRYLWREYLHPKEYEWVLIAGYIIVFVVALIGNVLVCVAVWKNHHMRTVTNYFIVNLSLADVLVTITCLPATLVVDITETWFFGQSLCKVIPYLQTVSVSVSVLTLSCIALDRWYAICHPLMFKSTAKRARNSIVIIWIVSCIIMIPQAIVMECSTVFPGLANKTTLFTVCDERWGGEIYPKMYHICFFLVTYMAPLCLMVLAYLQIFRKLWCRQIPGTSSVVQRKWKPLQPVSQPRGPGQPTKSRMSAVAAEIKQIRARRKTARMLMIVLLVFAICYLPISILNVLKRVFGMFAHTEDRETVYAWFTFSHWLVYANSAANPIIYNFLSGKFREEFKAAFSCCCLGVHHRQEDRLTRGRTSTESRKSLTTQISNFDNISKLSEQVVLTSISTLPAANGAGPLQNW
Experimental: T-Rex CHO cells stably overexpressing the human orexin-2 receptor (OX2R) were induced overnight with 1 μg/mL of doxycycline in a T225 flask. 24 hours post induction, cells were lifted with accutase and plated into a 384-well proxy plate at 30,000 cells/well. Cells were then treated with different test compounds in 1× stimulation buffer containing 10 mM Hepes, 1 mM CaCl2), 0.5 mM MgCl2, 4.2 mM KCl, 146 mM NaCl, 5.5 mM glucose, and 50 mM LiCl, pH 7.4, for 1 hr at 37 degrees C. Following incubation, the reaction was terminated by the addition of detection mix, which is composed of IP1-d2 and anti-IP1-cryptate diluted in lysis buffer as well as 1× stimulation buffer. The plates were allowed to incubate for 1 hour at room temperature and were then read in the EnVision® multimode plate reader, measuring inositol phosphate levels.
Cisbio IP1 is a cell-based functional assay quantifying the accumulation of inositol monophosphate (IP), a metabolite released as a result of orexin 2 receptor activation through the phospholipase C-Gq signaling pathway. This is a competitive immunoassay in which the IP1 produced by the cells upon receptor activation competes with the IP1 analog coupled to the d2 fluorophore (acceptor) for binding to an anti-IP1 monoclonal antibody labeled with Eu cryptate (donor). The measured HTRF-FRET based signal is inversely proportional to the IP1 concentration produced.
The EC50 values reported in Table 2 were obtained according to the human OX2R IP1 assay described above. Data are the mean EC50 values S.E.M. Reference Compound A is methyl (2R,3S)-3-((methylsulfonyl)amino)-2-(((cis-4-phenylcyclohexyl)oxy)methyl)-piperidine-1-carboxylate (Example 5 of PCT publication No. WO2017/135306). Reference Compound B is N-((2S,3S)-1-(2-hydroxy-2-methylpropanoyl)-2-((2,3′,5′-trifluorobiphenyl-3-yl)methyl)pyrrolidin-3-yl)methanesulfonamide (Example 483 of PCT publication No. WO2019/027058).

[3] = test system: human hepatocytes; assay: Hepatocytes stability assay (human hepatocytes); format: in vitro ADME; conditions: human hepatocytes; scaled hepatic clearance divided by liver blood flow (well-stirred model, fu assumed unity)
Method in brief: (§1)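 Compound at 1 μM (0.1% DMSO) was incubated with cryopreserved pooled human hepatocytes, 1×10^6 cells/mL in Krebs-Henseleit buffer, at 37 °C, sampled up to 240 min. Parent depletion by LC-MS/MS; half-life from first-order decay gave CLint, scaled to hepatic clearance by well-stirred model (fu assumed 1) and extraction ratio.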

[4] = Hepatocytes stability assay (human hepatocytes); format: in vitro ADME; conditions: both sexes, human, cryopreserved hepatocytes, cryopreserved human hepatocytes (pool of 50 mixed gender); 1 μM test compound; 1×10^6 cell/mL; 37 degrees C; read-out: CLint (μL/min/million cells)
Method in brief: as §1

[5] = test system: Sprague-Dawley rats; assay: Assessment of wake promotion in Sprague-Dawley rats (EEG/EMG); format: in vivo, rat; conditions: male Sprague-Dawley rats; PO; 3 mpk; dosed at ZT5; 6-hour post-dose period
Experimental: Wake promotion was assessed using electroencephalography (EEG) and electromyography (EMG) in adult male Sprague-Dawley rats. All rats (Charles River Laboratories, Raleigh, NC, USA) were intraperitoneally implanted with telemetry devices (F50-EEE, Data Sciences International Inc., MN, USA) under isoflurane anesthesia. For EEG, stainless steel screws were implanted over frontal cortex and parietal cortex, and reference screws were placed over cerebellum. Additionally, an electrode was placed in neck muscle for EMG. Rats were given carprofen post-surgery and underwent a 7 to 10-day recovery period. Rats habituated to the experimental room for 7 days and were maintained on a 12-hour light-dark cycle.
EEG and EMG data were recorded using the DSI telemetry system and Ponemah software (Data Sciences International Inc., MN, USA). Sleep-wake stages were scored both manually and with Somnivore, a supervised machine learning software platform, in 10 second epochs. Records were visually inspected as needed post-processing.
All test compounds were dissolved in 5% DMSO and suspended in 95% saline with 0.5% methylcellulose and 0.5% tween. […] Unless otherwise indicated, all compounds were dosed orally. Recordings for each rat were initiated immediately after dosing and lasted for 6 hours post-dose.
Two key endpoints include wakefulness time and cortical activation time. Wakefulness time is derived from the sleep-wake stage analysis. Cortical activation time is based on the duration in which frontal gamma oscillatory activity (30-100 Hz), a key feature of wakefulness, was elevated relative to a pre-treatment baseline. Mean cortical activation time was computed relative to vehicle treatment for the 6-hour post-dose period.

SMILES | efflux ratio at 2 h, 3 μM [1] | Papp A→B at 2 h, 3 μM [1] [×10⁻⁶ cm/s] | EC50 [2] [nM] | Extraction Ratio (ER) [3] | hepatocyte CLint at 1 μM [4] [µL/min/1e6 cells] | Mean cortical activation time (% vehicle treatment) [5] [% vehicle treatment]
C[C@@H]1C[C@H](NS(C)(=O)=O)[C@@H]2CO[C@H]3CC[C@H](CC3)c3ccccc3OCC(=O)N12 [Compound 103] | 28 | 1.4 | 10 to 1000 | 0.86 | 41 | 
Cc1cccc2c1C1CCC(CC1)OC[C@H]1[C@@H](NS(C)(=O)=O)CCCN1C(=O)CO2 (stereo in doubt) [Compound 2] | 46 | 0.69 |  | 0.80 | 28 | 182.50
O=C1COc2nccnc2[C@H]2CC[C@H](CC2)OCC2[C@@H](NS(=O)(=O)C3CC3)CCCN12 (stereo in doubt) [Compound 65] | > 100 | 0.1 |  | <0.22 | < 1.9 | 121.28
Cc1ncnc2c1[C@H]1CC[C@H](CC1)OCC1[C@@H](NS(=O)(=O)C3CC3)CCCN1C(=O)CO2 (stereo in doubt) [Compound 68] | 72 | 0.24 |  | 0.37 | 3.9 | 157.14
CS(=O)(=O)N[C@H]1CCCN2C(=O)COc3ccccc3[C@H]3CC[C@@H](OCC12)[C@H](O)C3 (stereo in doubt) [Compound 45] | > 5.3 | < 0.14 | 10 to 1000 | <0.22 | < 1.9 | 
Cc1ccnc2c1[C@H]1CC[C@H](CC1)OCC1[C@@H](NS(=O)(=O)C(C)C)CCN1C(=O)CO2 (stereo in doubt) [Compound 93] | 11 | 4.7 |  | 0.75 | 20 | 138.14
CC(C)S(=O)(=O)N[C@H]1CCCN2C(=O)COc3ccccc3C3CCC(CC3)OC[C@@H]12 (stereo in doubt) [Compound 3] | 10 | 1.8 |  | 0.76 | 21 | 204.79
O=C1COc2ccccc2[C@H]2CC[C@H](CC2)OCC2[C@@H](NS(=O)(=O)CF)CCCN12 (stereo in doubt) [Compound 38] | 35 | 1.32 | < 10 | 0.73 | 18 | 

More lines, main results first:

efflux ratio at 2 h, 3 μM [1] | Papp A→B at 2 h, 3 μM [1] [×10⁻⁶ cm/s] | EC50 [2] [nM] | Extraction Ratio (ER) [3] | hepatocyte CLint at 1 μM [4] [µL/min/1e6 cells] | SMILES | Mean cortical activation time (% vehicle treatment) [5] [% vehicle treatment]
49 | 0.56 | < 10 | 0.64 | 12 | Cc1ccnc2c1[C@H]1CC[C@H](CC1)OCC1[C@@H](NS(=O)(=O)C3CCOC3)CCCN1C(=O)CO2 (stereo in doubt) [Compound 89] | 
100 | 0.43 | < 10 | 0.82 | 31 | CC[C@@H]1Oc2ccccc2[C@H]2CC[C@H](CC2)OCC2[C@@H](NS(C)(=O)=O)CCCN2C1=O (stereo in doubt) [Compound 84] | 
> 100 | 0.3 | < 10 | 0.71 | 17 | C[C@@H]1CCN2C(=O)COc3ccccc3[C@H]3CC[C@H](CC3)OCC2[C@H]1NS(C)(=O)=O (mixture of isomers) [Compound 36] | 
> 100 | 0.18 | < 10 | 0.66 | 13 | O=C1COc2ccccc2[C@H]2CC[C@H](CC2)OCC2[C@@H](NS(=O)(=O)C3CCOC3)CCCN12 (stereo in doubt) [Compound 22] | 
43 | 0.65 | < 10 | 0.81 | 28 | C[C@@H](C(F)(F)F)S(=O)(=O)N[C@H]1CCCN2C(=O)COc3ccccc3C3CCC(CC3)OC[C@@H]12 (stereo in doubt) [Compound 24] | 
27 | 0.62 | < 10 | 0.84 | 35 | CC[C@@H](C)S(=O)(=O)N[C@H]1CCCN2C(=O)COc3ccccc3C3CCC(CC3)OC[C@@H]12 (stereo in doubt) [Compound 25] | 
> 100 | 0.041 | < 10 | 0.36 | 3.7 | CS(=O)(=O)N[C@H]1CCCN2C(=O)[C@@H](CO)Oc3ccccc3[C@H]3CC[C@H](CC3)OCC12 (stereo in doubt) [Compound 60] | 
> 100 | < 0.034 | < 10 | 0.51 | 6.9 | CS(=O)(=O)N[C@H]1CCCN2C(=O)[C@H](CO)Oc3ccccc3[C@H]3CC[C@H](CC3)OCC12 (stereo in doubt) [Compound 61] | 
87 | 0.44 | < 10 | 0.82 | 30 | C[C@H](C(F)(F)F)S(=O)(=O)N[C@H]1CCCN2C(=O)COc3ccccc3C3CCC(CC3)OC[C@@H]12 (stereo in doubt) [Compound 23] | 
97 | 0.45 | < 10 | 0.84 | 37 | CC[C@H]1Oc2ccccc2[C@H]2CC[C@H](CC2)OCC2[C@@H](NS(C)(=O)=O)CCCN2C1=O (stereo in doubt) [Compound 85] | 
52 | 0.8 | < 10 | 0.84 | 36 | CC[C@H](C)S(=O)(=O)N[C@H]1CCCN2C(=O)COc3ccccc3C3CCC(CC3)OC[C@@H]12 (stereo in doubt) [Compound 21] | 
